Laboratory results: publication PMC7536148, “Interactions of zearalanone, α-zearalanol, β-zearalanol, zearalenone-14-sulfate, and zearalenone-14-glucoside with serum albumin” (Mycotoxin Research, 2020)
pKd: −log10 of the molar value. Values joined by “and” are separate entries in the source; they are usually repeats but may differ in a detail not shown here. Equal values may be shown once. Where a name gives a salt, the structure may show the parent alone. Read-outs that look alike come from different tables or passages of the source. Marks after values point to notes of the source that are not given here.

Experiments:
[1] = target: T1, bovine serum albumin (BSA) (Bos taurus, UniProt P02769); experiment: Fluorescence quenching of bovine serum albumin by mycotoxins; type: binding; details: for logKSV ± SEM (Stern-Volmer quenching constant): BSA 2 μmol/L, PBS pH 7.4, room temperature, λex = 295 nm, λem = 340 nm
T1 construct: purchased Sigma-Aldrich
Procedure: (§1) Fluorescence spectroscopic measurements were carried out employing a Hitachi F-4500 fluorescence spectrophotometer (Hitachi, Tokyo, Japan) to investigate the effect of increasing mycotoxin concentrations on the fluorescence signal of albumins as well as on the emission spectrum of warfarin-HSA complex. Our studies were executed in phosphate-buffered saline (PBS, pH 7.4; 8.00 g/L NaCl, 0.20 g/L KCl, 1.81 g/L Na2HPO4 × 2H2O, 0.24 g/L KH2PO4) at room temperature, in the presence of air.
(§2) For spectral correction of fluorescence emission intensities, absorption spectra of mycotoxins were also recorded applying a Jasco-V730 spectrophotometer (Jasco, Tokyo, Japan). The inner-filter effect of mycotoxins was corrected as described previously (Hu and Liu [2015]; Faisal et al. [2018]):1 Icor=Iobs×e^Aex+Aem/2 where Icor and Iobs indicate the corrected and observed fluorescence emission intensities, respectively. Aex and Aem denote the absorbance of mycotoxins at the excitation and emission wavelengths used, respectively.
(§3) To investigate the stability of mycotoxin-albumin complexes, mycotoxin-induced quenching effects on the intrinsic fluorescence of albumins were tested. The emission signal of albumins (2 μmol/L; λex = 295 nm; […]) were measured in the presence of increasing concentrations of mycotoxins (0.0, 1.0, 2.0, 3.0, 4.0, 5.0, 6.0, 7.0, 8.0, 9.0, and 10.0 μmol/L). Stern-Volmer quenching constants (KSV; unit: L/mol) were determined employing the Stern-Volmer equation (Ma et al. [2018]; Faisal et al. [2018]):2 I0/I=1+KSV×Q where Q is the concentration of the mycotoxin (unit: mol/L). I0 and I are the fluorescence emission signal of albumin in the absence and presence of mycotoxins, respectively. Z14S and Z14G exert fluorescence; their excitation and emission spectra, under different environmental conditions, have been reported previously (Faisal et al. [2019], [2020]).
(§4) Binding constants (K; unit: L/mol) of mycotoxin-albumin complexes were determined by nonlinear fitting employing Hyperquad2006 software, as described in details in our previous studies (Sueck et al. [2018]; Faisal et al. [2018]).

[2] = target: T2, human serum albumin (HSA) (Homo sapiens, UniProt P02768); experiment: Fluorescence quenching of human serum albumin by mycotoxins; type: binding; details: for logKSV ± SEM (Stern-Volmer quenching constant): HSA 2 μmol/L, PBS pH 7.4, room temperature, λex = 295 nm, λem = 340 nm; for pKd: logK ± SEM (binding constant of mycotoxin-albumin complex), HSA, quenching data, Hyperquad2006 fitting, 1:1 stoichiometry, PBS pH 7.4
T2 construct: purchased Sigma-Aldrich
Procedure: as §1, §2, §3, §4

[3] = system: estrogen receptors; details: cited from earlier work; for xenoestrogenic effects compared with ZEN: ref EFSA 2017, Fleck et al. 2017, Frizzell et al. 2011, Filannino et al. 2011
[4] = target: T3, porcine serum albumin (PSA) (Sus scrofa, UniProt P08835); experiment: Fluorescence quenching of porcine serum albumin by mycotoxins; type: binding; details: for logKSV ± SEM (Stern-Volmer quenching constant): PSA 2 μmol/L, PBS pH 7.4, room temperature, λex = 295 nm, λem = 340 nm
T3 construct: purchased Sigma-Aldrich
Procedure: as §1, §2, §3, §4

[5] = target: T4, warfarin-HSA complex (Homo sapiens, UniProt P02768); experiment: Effect of mycotoxins on warfarin-HSA interaction (warfarin fluorescence); type: binding; details: warfarin 1 μmol/L, HSA 3.5 μmol/L, mycotoxin 0-15 μmol/L, PBS pH 7.4, λex = 317 nm
T4 construct: purchased Sigma-Aldrich
Procedure: as §1, §2
To test the effects of ZEN metabolites on warfarin-HSA interaction, our previously reported method was applied (Faisal et al. [2018]; Fliszár-Nyúl et al. [2019]). In this experiment, the fluorescence emission signal of warfarin (1 μmol/L; λex = 317 nm, λem = 379 nm) was examined in the presence of HSA (3.5 μmol/L) without and with mycotoxins (0, 1, 2, 3, 4, 5, 6, 8, 10, and 15 μmol/L) in PBS (pH 7.4). Under these conditions, approximately 70% of warfarin is albumin-bound.

[6] = target: T5, rat serum albumin (RSA) (Rattus norvegicus, UniProt P02770); experiment: Fluorescence quenching of rat serum albumin by mycotoxins; type: binding; details: for logKSV ± SEM (Stern-Volmer quenching constant): RSA 2 μmol/L, PBS pH 7.4, room temperature, λex = 295 nm, λem = 340 nm
T5 construct: purchased Sigma-Aldrich
Procedure: as §1, §2, §3, §4

[7] = pigs, cited from earlier work; for intestinal hydrolysis to ZEN after oral administration: ref Binder et al. 2017
[8] = target: T6, HSA (Homo sapiens, UniProt P02768); experiment: High-performance affinity chromatography on HSA-coated column; type: binding; details: Chiralpak HSA column, isopropanol / 0.01 mol/L ammonium acetate pH 7.0 (15:85 v/v%), 0.5 mL/min, room temperature
T6 construct: purchased Daicel Chiralpak HSA, 50 × 3.0 mm, 5 μm
Procedure: HPAC was performed with a HSA-coated column (Faisal et al. [2018]). The HPLC system (Jasco, Tokyo, Japan) used for the analysis included an autosampler (AS-4050), a binary pump (PU-4180), and a diode-array detector (MD-4017). A 5-μL volume of samples (ZAN: 200 μmol/L; ZEN, α-ZAL, β-ZAL, and Z14S: 100 μmol/L; Z14G: 50 μmol/L) was driven through a pre-column filter (Waters, Milford, MA, USA) linked to an immobilized HSA-coated HPAC column (Chiralpak® HSA, 50 × 3.0 mm, 5 μm; Daicel, Tokyo, Japan). The isocratic elution was performed with 0.5-mL/min flow rate at room temperature. The mobile phase contained isopropanol (HPLC grade; VWR, Debrecen, Hungary) and 0.01 mol/L pH 7.0 ammonium acetate buffer (15:85 v/v%). Mycotoxins were detected at 235 nm, and chromatograms were evaluated with ChromNAV software.

[9] = system: CaCo-2 cells; parameters: method as in Cirlini et al. 2016; details: ref Cirlini et al. 2016; cited from earlier work
[10] = system: human, bovine, porcine, and rat serum albumins; experiment: Fluorescence quenching, statements on all albumins tested together; type: binding; details: albumins 2 μmol/L, mycotoxin 0-10 μmol/L, PBS, λex = 295 nm
Procedure: as §1, §2
To investigate the stability of mycotoxin-albumin complexes, mycotoxin-induced quenching effects on the intrinsic fluorescence of albumins were tested. The emission signal of albumins (2 μmol/L; λex = 295 nm; […]) were measured in the presence of increasing concentrations of mycotoxins (0.0, 1.0, 2.0, 3.0, 4.0, 5.0, 6.0, 7.0, 8.0, 9.0, and 10.0 μmol/L). […]

[11] = parameters: method as in Sun et al. 2019; details: rats, ref Sun et al. 2019; cited from earlier work
[12] = target: T4, warfarin-HSA complex; parameters: method as in Poór et al. 2017; Faisal et al. 2018; details: allosteric interaction with Sudlow's site I ligand; ref Poór et al. 2017; Faisal et al. 2018; cited from earlier work
[13] = target: T2, human serum albumin (HSA); parameters: method as in Faisal et al. (2018); details: ref Faisal et al. (2018); cited from earlier work
[14] = parameters: method as in Rai et al. 2019; details: ref Rai et al. 2019; cited from earlier work
[15] = target: T1, bovine serum albumin (BSA); parameters: method as in Faisal et al. (2018); details: ref Faisal et al. (2018); cited from earlier work
[16] = target: T5, rat serum albumin (RSA); parameters: method as in Faisal et al. (2018); details: ref Faisal et al. (2018); cited from earlier work
[17] = target: T3, porcine serum albumin (PSA); parameters: method as in Faisal et al. (2018); details: ref Faisal et al. (2018); cited from earlier work
[18] = parameters: method as in EFSA 2014; details: ZEN equivalents for ZEN and its modified forms jointly; ref EFSA 2014; cited from earlier work
[19] = from binding constants of Table 2

T1 sequence (P02769 25-607): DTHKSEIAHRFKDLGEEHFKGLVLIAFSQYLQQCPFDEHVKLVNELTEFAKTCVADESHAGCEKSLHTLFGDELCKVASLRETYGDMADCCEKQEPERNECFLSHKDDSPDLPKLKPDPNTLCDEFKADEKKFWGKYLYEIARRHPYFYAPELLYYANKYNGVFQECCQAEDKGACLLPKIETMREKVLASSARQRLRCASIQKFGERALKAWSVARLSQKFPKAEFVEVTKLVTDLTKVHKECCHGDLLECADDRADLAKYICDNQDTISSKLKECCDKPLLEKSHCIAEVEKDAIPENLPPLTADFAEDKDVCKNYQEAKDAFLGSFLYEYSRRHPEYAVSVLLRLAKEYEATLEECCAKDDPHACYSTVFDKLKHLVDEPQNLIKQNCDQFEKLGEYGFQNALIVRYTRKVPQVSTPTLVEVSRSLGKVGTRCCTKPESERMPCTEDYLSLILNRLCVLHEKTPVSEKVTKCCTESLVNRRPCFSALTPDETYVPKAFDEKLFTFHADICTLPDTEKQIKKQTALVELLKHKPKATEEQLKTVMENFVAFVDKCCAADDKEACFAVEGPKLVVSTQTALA
T5 sequence (P02770 25-608): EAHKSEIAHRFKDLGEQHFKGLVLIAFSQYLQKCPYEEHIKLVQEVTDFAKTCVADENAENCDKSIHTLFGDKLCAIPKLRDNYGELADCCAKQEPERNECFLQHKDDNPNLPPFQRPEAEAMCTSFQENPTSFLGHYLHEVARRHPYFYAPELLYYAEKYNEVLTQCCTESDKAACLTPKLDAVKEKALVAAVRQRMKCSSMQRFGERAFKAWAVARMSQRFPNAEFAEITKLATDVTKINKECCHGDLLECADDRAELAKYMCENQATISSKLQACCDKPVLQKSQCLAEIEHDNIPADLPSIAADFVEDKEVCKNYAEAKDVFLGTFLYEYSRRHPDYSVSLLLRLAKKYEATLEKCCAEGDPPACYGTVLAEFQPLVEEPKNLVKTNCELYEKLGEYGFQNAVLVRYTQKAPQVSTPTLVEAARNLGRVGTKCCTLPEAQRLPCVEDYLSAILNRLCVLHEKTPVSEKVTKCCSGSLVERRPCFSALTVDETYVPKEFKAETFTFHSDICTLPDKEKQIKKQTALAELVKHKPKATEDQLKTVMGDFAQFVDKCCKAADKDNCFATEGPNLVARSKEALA
T3 sequence (P08835 25-607): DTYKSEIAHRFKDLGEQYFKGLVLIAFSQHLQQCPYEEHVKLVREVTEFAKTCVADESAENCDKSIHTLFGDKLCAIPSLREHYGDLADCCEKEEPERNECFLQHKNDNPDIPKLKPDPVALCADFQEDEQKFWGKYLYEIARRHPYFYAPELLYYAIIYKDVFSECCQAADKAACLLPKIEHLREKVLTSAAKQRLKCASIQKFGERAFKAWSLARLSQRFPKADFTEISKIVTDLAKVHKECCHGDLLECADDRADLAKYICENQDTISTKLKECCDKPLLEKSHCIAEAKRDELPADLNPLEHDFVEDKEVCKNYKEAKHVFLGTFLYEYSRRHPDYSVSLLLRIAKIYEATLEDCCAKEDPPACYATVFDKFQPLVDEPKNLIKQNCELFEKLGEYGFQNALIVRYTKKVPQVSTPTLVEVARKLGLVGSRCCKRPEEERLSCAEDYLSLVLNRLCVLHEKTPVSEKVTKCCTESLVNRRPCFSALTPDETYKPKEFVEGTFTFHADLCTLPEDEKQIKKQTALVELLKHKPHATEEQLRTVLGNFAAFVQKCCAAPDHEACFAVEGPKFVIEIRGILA
T4 sequence (P02768 25-609, one chain of several): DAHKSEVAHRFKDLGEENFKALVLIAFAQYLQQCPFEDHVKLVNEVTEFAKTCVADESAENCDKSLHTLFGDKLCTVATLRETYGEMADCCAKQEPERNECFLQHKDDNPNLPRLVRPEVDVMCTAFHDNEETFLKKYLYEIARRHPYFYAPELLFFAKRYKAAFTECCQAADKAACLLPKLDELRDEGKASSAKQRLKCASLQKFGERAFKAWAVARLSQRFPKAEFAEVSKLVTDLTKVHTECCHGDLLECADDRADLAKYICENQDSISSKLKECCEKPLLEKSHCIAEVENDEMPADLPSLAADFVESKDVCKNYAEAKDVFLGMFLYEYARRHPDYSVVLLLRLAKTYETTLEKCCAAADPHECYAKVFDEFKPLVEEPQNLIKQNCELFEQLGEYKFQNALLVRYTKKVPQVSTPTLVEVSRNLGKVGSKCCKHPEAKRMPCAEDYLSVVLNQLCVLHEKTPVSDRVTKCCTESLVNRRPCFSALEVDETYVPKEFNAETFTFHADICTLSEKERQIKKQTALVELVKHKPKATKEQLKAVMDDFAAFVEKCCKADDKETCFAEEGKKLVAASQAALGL
T6 sequence (P02768 25-609): as the sequence (P02768 25-609, one chain of several) above
T2 sequence (P02768 25-609): as the sequence (P02768 25-609, one chain of several) above

SMILES	pKd [1]	logKSV ± SEM (Stern-Volmer quenching constant) [1] [L/mol]	logKSV ± SEM (Stern-Volmer quenching constant) [2] [L/mol]	pKd [2]	pKd [4]	logKSV ± SEM (Stern-Volmer quenching constant) [4] [L/mol]	effect on fluorescence emission signal of warfarin at 379 nm (warfarin-HSA interaction) [5]	pKd [6]	logKSV ± SEM (Stern-Volmer quenching constant) [6] [L/mol]	retention time (tR) from HSA-HPAC affinity column [8]	effect on binding affinity of warfarin towards HSA [12]	other results
C[C@H]1CCCC(=O)CCC/C=C/c2cc(OS(=O)(=O)O)cc(O)c2C(=O)O1 [Z14S, Zearalenone-14-sulfate ammonium salt]	5.43	5.32 ± 0.02	4.64 ± 0.03	4.70 and 4.71	5.12	5.04 ± 0.02	did not affect the fluorescence at 379 nm	5.93	5.70 ± 0.02	23.3 min and 23.293 min		lower estrogenicity vs. ZEN ([3]; in vitro, ref Drzymala et al. 2015): 100 fold; difference in binding affinity, RSA and HSA complex [6, 19]: 16 fold; intestinal hydrolysis to ZEN after oral administration [7]: complete intestinal hydrolysis to ZEN
C[C@H]1CCCC(=O)CCC/C=C/c2cc(O[C@@H]3O[C@H](CO)[C@@H](O)[C@H](O)[C@H]3O)cc(O)c2C(=O)O1 [Z14G, Zearalenone-14-O-β-D-glucoside]							did not affect the fluorescence at 379 nm			1.7 min and 1.650 min		absorption in CaCo-2 cell model [9]: considerably lower compared with ZEN; effect on the emission signals of albumins (quenching) [10]: did not affect the emission signals of albumins; plasma concentrations after oral administration [11]: low plasma concentrations; fraction of the orally administered compound absorbed ([7]; oral, ref Catteuw et al. 2019): approximately 61%; intestinal hydrolysis to ZEN after oral administration [7]: complete intestinal hydrolysis to ZEN
C[C@H]1CCC[C@H](O)CCC/C=C/c2cc(O)cc(O)c2C(=O)O1 [α-ZEL, α-zearalenol, reference compound]											increase	xenoestrogenic effects compared with ZEN [3]: considerably higher xenoestrogenic effects than ZEN
C[C@H]1CCC[C@@H](O)CCC/C=C/c2cc(O)cc(O)c2C(=O)O1 [β-ZEL, β-zearalenol]											decrease	
C[C@H]1CCCC(=O)CCC/C=C/c2cc(O)cc(O)c2C(=O)O1 [ZEN, Zearalenone]										12.3 min and 12.267 min	increase	logK ± SEM (binding constant of mycotoxin-albumin complex) [13]: 5.1 L/mol and 5.09 ± 0.01^a L/mol; logKSV ± SEM (Stern-Volmer quenching constant) [13]: 5.09 ± 0.01^a L/mol; IARC carcinogen classification [14]: group 3 carcinogen; logK ± SEM (binding constant of mycotoxin-albumin complex) [15]: 4.78 ± 0.01^a L/mol; logKSV ± SEM (Stern-Volmer quenching constant) [15]: 4.81 ± 0.01^a L/mol; logK ± SEM (binding constant of mycotoxin-albumin complex) [16]: 5.42 ± 0.00^a L/mol; logKSV ± SEM (Stern-Volmer quenching constant) [16]: 5.50 ± 0.01^a L/mol; logK ± SEM (binding constant of mycotoxin-albumin complex) [17]: 4.57 ± 0.01^a L/mol; logKSV ± SEM (Stern-Volmer quenching constant) [17]: 4.56 ± 0.02^a L/mol; human tolerable daily intake (TDI) [18]: 0.25 μg/kg body weight per day
C[C@H]1CCC[C@H](O)CCCCCc2cc(O)cc(O)c2C(=O)O1 [α-ZAL, α-zearalanol]	4.34	4.20 ± 0.05	4.50 ± 0.02	4.55	4.38	4.30 ± 0.05	considerably increased the emission signal of warfarin	5.31	5.21 ± 0.00	5.3 min and 5.313 min		xenoestrogenic effects compared with ZEN [3]: considerably higher xenoestrogenic effects than ZEN; difference in binding affinity, RSA vs. BSA complex [6, 19]: 9 fold
C[C@H]1CCC[C@@H](O)CCCCCc2cc(O)cc(O)c2C(=O)O1 [β-ZAL, β-zearalanol]	4.12	3.88 ± 0.06	4.34 ± 0.04	4.37	4.15	4.13 ± 0.09	did not affect the fluorescence at 379 nm	5.61	5.43 ± 0.01	3.1 min and 3.053 min		difference in binding affinity, RSA vs. BSA complex [6, 19]: 30 fold
C[C@H]1CCCC(=O)CCCCCc2cc(O)cc(O)c2C(=O)O1 [ZAN, zearalanone]		4.41 ± 0.04	4.52 ± 0.04	4.58	3.97	3.97 ± 0.06	considerably increased the emission signal of warfarin	5.12	5.00 ± 0.03	8.0 min and 8.017 min		Kd ([1]; BSA, quenching data, Hyperquad2006 fitting, 1:1 stoichiometry, PBS pH 7.4, read-out: logK ± SEM (binding constant of mycotoxin-albumin complex) (converted)): 30.9 µM; difference in binding affinity, RSA vs. PSA complex [6, 19]: 14 fold
